Measured values from the supplement of paper PMC10307832.

What was measured:
Experiment in all cases: relative viability (nuclei count vs DMSO), 5 days (fraction); higher = more cells survive
Doramapimod + Olaparib = compound: Cc1ccc(-n2nc(C(C)(C)C)cc2NC(=O)Nc2ccc(OCCN3CCOCC3)c3ccccc23)cc1 [Doramapimod] + O=C(c1cc(Cc2n[nH]c(=O)c3ccccc23)ccc1F)N1CCN(C(=O)C2CC2)CC1 [Olaparib] (partner 8 µM)
Procedure, shortened: (§1)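 Five library-drug doses in √10 steps were combined with a fixed anchor-drug dose, or a single drug was given alone, by pin tool to lung cancer cell lines in 1536-well plates the day after seeding. Nuclei were stained and counted after 5 days. Relative viability is the nuclei count in treated wells over that in vehicle wells, taken as the median of duplicate plates.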

Doramapimod + Phenformin = compound: Cc1ccc(-n2nc(C(C)(C)C)cc2NC(=O)Nc2ccc(OCCN3CCOCC3)c3ccccc23)cc1 [Doramapimod] + N=C(N)NC(=N)NCCc1ccccc1 [Phenformin] (partner 250 µM)
Procedure, shortened: as §1

IPA-3 + Palbociclib = compound: C1=CC=C2C(=C1)C=CC(=C2SSC3=C(C=CC4=CC=CC=C43)O)O [IPA-3] + CC(=O)c1c(C)c2cnc(Nc3ccc(N4CCNCC4)cn3)nc2n(C2CCCC2)c1=O [Palbociclib] (partner 0.5 µM)
Procedure, shortened: as §1

RAF265 + Phenformin = compound: Cn1c(Nc2ccc(C(F)(F)F)cc2)nc2cc(Oc3ccnc(-c4ncc(C(F)(F)F)[nH]4)c3)ccc21 [RAF265] + N=C(N)NC(=N)NCCc1ccccc1 [Phenformin] (partner 250 µM)
Procedure, shortened: as §1

Row | Cell Line | relative viability (Doramapimod + Olaparib; first compound 0.02 µM) | relative viability (Doramapimod + Olaparib; first compound 0.06325 µM) | relative viability (Doramapimod + Olaparib; first compound 0.2 µM) | relative viability (Doramapimod + Olaparib; first compound 0.6325 µM) | relative viability (Doramapimod + Olaparib; first compound 2 µM) | relative viability (Doramapimod + Phenformin; first compound 0.02 µM) | relative viability (Doramapimod + Phenformin; first compound 0.06325 µM) | relative viability (Doramapimod + Phenformin; first compound 0.2 µM) | relative viability (Doramapimod + Phenformin; first compound 0.6325 µM) | relative viability (Doramapimod + Phenformin; first compound 2 µM) | relative viability (IPA-3 + Palbociclib; first compound 0.2 µM) | relative viability (IPA-3 + Palbociclib; first compound 0.6325 µM) | relative viability (IPA-3 + Palbociclib; first compound 2 µM) | relative viability (IPA-3 + Palbociclib; first compound 6.325 µM) | relative viability (IPA-3 + Palbociclib; first compound 20 µM) | relative viability (RAF265 + Phenformin; first compound 0.01 µM) | relative viability (RAF265 + Phenformin; first compound 0.03162 µM) | relative viability (RAF265 + Phenformin; first compound 0.1 µM) | relative viability (RAF265 + Phenformin; first compound 0.3162 µM) | relative viability (RAF265 + Phenformin; first compound 1 µM)
1 | LU99A | 0.273 | 0.304 | 0.27 | 0.259 | 0.256 | 0.768 | 0.851 | 0.942 | 0.846 | 0.712 | 0.437 | 0.376 | 0.425 | 0.452 | 0.394 | 0.817 | 0.821 | 0.679 | 0.571 | 0.375
2 | BEN | 1.05 | 1.1 | 1.01 | 0.901 | 0.967 | 0.29 | 0.245 | 0.27 | 0.242 | 0.278 | 0.432 | 0.471 | 0.43 | 0.532 | 0.457 | 0.276 | 0.267 | 0.274 | 0.263 | 0.239
3 | SK-LU-1 | 0.487 | 0.43 | 0.39 | 0.503 | 0.388 | 0.613 | 0.516 | 0.542 | 0.61 | 0.46 | 0.446 | 0.341 | 0.374 | 0.401 | 0.411 | 0.543 | 0.377 | 0.385 | 0.26 | 0.234
4 | NCI-H1975 | 0.717 | 0.85 | 0.864 | 0.768 | 0.82 | 0.41 | 0.382 | 0.411 | 0.415 | 0.397 | 0.843 | 0.555 | 0.642 | 0.54 | 0.569 | 0.386 | 0.343 | 0.284 | 0.251 | 0.205
5 | NCI-H2342 | 0.496 | 0.475 | 0.472 | 0.473 | 0.431 | 0.617 | 0.594 | 0.593 | 0.704 | 0.497 | 0.6 | 0.479 | 0.553 | 0.57 | 0.575 | 0.502 | 0.617 | 0.679 | 0.468 | 0.549
6 | RERF-LC-KJ | 0.916 | 0.864 | 1.08 | 1.01 | 0.887 | 0.401 | 0.443 | 0.395 | 0.472 | 0.458 | 1.19 | 1.04 | 1.08 | 1.16 | 0.826 | 0.469 | 0.42 | 0.389 | 0.408 | 0.376
7 | NCI-H441 | 0.45 | 0.501 | 0.45 | 0.609 | 0.356 | 0.895 | 0.808 | 0.828 | – | 0.729 | 0.244 | 0.213 | 0.198 | 0.169 | 0.185 | 0.914 | 0.833 | 0.725 | 0.628 | 0.633
8 | LCLC-103H | 0.741 | 0.786 | 0.745 | 0.758 | 0.764 | 0.322 | 0.345 | 0.298 | 0.322 | 0.32 | 0.496 | 0.498 | 0.485 | 0.438 | 0.492 | 0.333 | 0.346 | 0.305 | 0.319 | 0.285
9 | HCC-78 | 0.779 | 0.715 | 0.796 | 0.856 | 0.729 | 0.704 | 0.819 | 0.743 | 0.813 | 0.543 | 0.53 | 0.435 | 0.485 | 0.486 | 0.484 | 0.87 | 0.847 | 0.832 | 0.647 | 0.652
10 | NCI-H1915 | 0.285 | 0.287 | 0.252 | 0.254 | 0.233 | 0.362 | 0.357 | 0.375 | 0.348 | 0.298 | 0.498 | 0.514 | 0.534 | 0.495 | 0.54 | 0.364 | 0.341 | 0.265 | 0.203 | 0.183
